One molecule from patent US20260217776A1, “COMPOUND WITH ANTITUMOR ACTIVITY, COR[…] AND COR[…]” (priority 2023, published 2026) can be followed below.

SMILES strings stand for the structures. Read-outs that look alike come from different tables or passages of the source. Bridge positions count the residues as written; N and C are the ends. Peptide text beside a SMILES is read from it.

Data set [1] deals with KB31 human epidermoid carcinoma cell line. The conditions noted are these: for cell viability: KB31 line, peptide 150 μM, untreated 100%. On the procedure:
(§1) The cytotoxic activity assays were performed using a […] human epidermoid carcinoma cell line (American Type Culture Collection) and, as control, non-tumor cell lines of normal dermal fibroblasts (NDFa) and immortalized human keratinocytes (HACAT).
(§2) The used cells were placed in culture dishes (Corning®) and treated with the peptide (at a concentration of 150 μM) for 1 day and 6 days. In parallel, the same lines were prepared, without being treated with the peptide, as a negative control.
(§3) The analyzes were performed with a resazurin-based cytotoxicity assay (Sigma Aldrich) and a trypan blue exclusion assay.

The subject of data set [2] is immortalized human keratinocytes (HACAT). Put plainly: apoptotic activity assay (BD cell viability kit). The conditions noted are these: HACAT line, peptide 150 μM. The format is cell-based. On the procedure:
(§4) The same cell lines were used to verify the apoptotic activity of the peptide, providing the same treatment and the same negative controls. The percentage of apoptotic cells was determined using a BD™ cell viability kit (BD Biosciences), following the manufacturer's instructions. The results are expressed as average values in percentages taking into account the standard error of the mean (SEM).

The test system of data set [3] is KB31 human epidermoid carcinoma cell line. Put plainly: apoptotic activity assay (BD cell viability kit). The data set is classed as cell-based. As to conditions: peptide 150 μM. On the procedure: as §4
Data set [4] relates to normal dermal fibroblasts (NDFa). Put plainly: apoptotic activity assay (BD cell viability kit). The format is cell-based. As to conditions: NDFa line, peptide 150 μM. On the procedure: as §4
A further data set can be described thus: in vitro. On the procedure: as §1, §2, §3
Where [5] appears, read: human, immortalized keratinocytes (HACAT).
Setting [6] is: normal dermal fibroblasts (NDFa).

As usually defined, the cell viability is the share of living cells, or the viability signal relative to a control. Low values mean more harm to the cells, high ones less harm to the cells. Usually viability stands for a read-out of living cells in per cent, often relative to untreated cells. Take `CC(C)C[C@@H]1NC(=O)[C@H](CC(=O)O)NC(=O)[C@H](CC(N)=O)NC(=O)[C@H](CCCCN)NC(=O)[C@H](CCCNC(=N)N)NC(=O)CNC(=O)[C@H](CCC(=O)O)NC(=O)[C@H](Cc2c[nH]cn2)NC(=O)CNC(=O)[C@H](CCCNC(=N)N)NC(=O)[C@H](CCC(=O)O)NC(=O)[C@H](CO)NC(=O)[C@H](CC(C)C)NC(=O)[C@H]([C@@H](C)O)NC(=O)[C@H](CC(C)C)NC(=O)[C@H](CC(C)C)NC(=O)[C@@H]2CCCN2C(=O)[C@@H](NC(=O)[C@@H](N)CO)CSSC[C@@H](C(=O)N[C@@H](CCCNC(=N)N)C(=O)O)NC(=O)[C@H](CCC(=O)O)NC(=O)[C@H](C(C)C)NC(=O)[C@H](CCCCN)NC(=O)[C@H](CCCCN)NC1=O` [peptide] (H-SCPLLTLSERGHEGRKNDLKKVECR-OH; disulfide 2-24; N-terminus assumed): the cell viability is 77% in data set [1] (1 day) and “approximately 45%” in data set [1] (6 days). In addition, the “selectivity toward tumor cells” value in data set [1] (KB31 tumor cells versus non-tumor NDFa and HACAT, cytotoxic and apoptotic assays) was “good selectivity toward tumor cells”. Also, the “apoptosis (percentage of apoptotic cells)” value is recorded as “less than 5%” in data set [2] (1 day); “less than 5%” in data set [2] (6 days); “less than 5%” in data set [3] (1 day); “more than 50%” in data set [3] (6 days, negative control just over 10%); “less than 5%” in data set [4] (1 day); “less than 5%” in data set [4] (6 days). In addition, the viability at 1 day, 150 μM was roughly 85% in “in vitro” (setting [5]) and roughly 80% in “in vitro” (setting [6]). The values for the viability at 6 days, 150 μM in “in vitro” (setting [5]) and in the data set “in vitro” (setting [6]) were roughly 85% and roughly 80%, respectively.
